Several values for one entry are separate records, joined by “and”; a condition that tells them apart may be missing. Equal entries are not always repeated.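 Protocol summary: plate cells (96-well), add compound at 5 concentrations, incubate 48 h, interpolate endpoints linearly. Abbreviation: GI50, concentration required for 50% inhibition of growth. TGI marks complete inhibition of growth.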

Experimental findings from PubChem BioAssay (NCI) are described below.

Test systems include HCC-2998 colon; OVCAR-4 ovarian; OVCAR-8 ovarian; SK-MEL-2 melanoma; SNB-75 CNS; HS 578T breast; MDA-MB-435; T-47D breast.
Common to all, as to experiment: growth of human tumour cells (NCI), 48 h

Regarding `N[C@@H]1CCCC[C@@H]1N.O=P([O-])([O-])CN(CCN(CP(=O)([O-])[O-])CP(=O)([O-])[O-])CP(=O)([O-])[O-].[Pt+2]`, the GI50 in the test on HCC-2998 colon, with OVCAR-4 ovarian, in the test on OVCAR-8 ovarian, with SK-MEL-2 melanoma and in the test with SNB-75 CNS was over 25 µM throughout. For the same compound, the TGI in the test on HCC-2998 colon, in the test on OVCAR-4 ovarian, in the test on OVCAR-8 ovarian, in the test with SK-MEL-2 melanoma and in the test on SNB-75 CNS was over 25 µM in each case.

`COc1ccc2nc(NC(=O)CSc3nnc4n3S(=O)(=O)c3ccccc3N4c3ccccc3)sc2c1`: the GI50 was over 100 µM with HCC-2998 colon; over 100 µM with HS 578T breast; over 100 µM with MDA-MB-435; over 100 µM in the test on OVCAR-4 ovarian; over 100 µM in the test with OVCAR-8 ovarian; 15.9 µM in the test on SNB-75 CNS. The GI50 in the test with T-47D breast was over 100 µM. Also, the TGI in the test with HCC-2998 colon, in the test with HS 578T breast, in the test on MDA-MB-435, with OVCAR-4 ovarian, in the test on OVCAR-8 ovarian and in the test on SNB-75 CNS was over 100 µM each time. The same compound displayed a TGI with T-47D breast of over 100 µM.

Consider `O=C1CN(c2cccc(Cl)c2)C(=O)CN1CCN1CC(=O)N(c2cccc(Cl)c2)CC1=O`, for which the TGI in the test on HCC-2998 colon, with HS 578T breast, with MDA-MB-435, in the test with OVCAR-4 ovarian, with OVCAR-8 ovarian and in the test with SNB-75 CNS was over 100 µM throughout.

Take `COc1ccc(C2[C@@H](c3ccccc3)C(=O)N2c2cc(OC)c(OC)c(OC)c2)cc1F` (some centres undefined): the GI50 was 0.0394 µM in the test on HCC-2998 colon; 0.0434 µM in the test on HS 578T breast; 0.0871 µM in the test with OVCAR-4 ovarian; 0.0344 µM in the test on OVCAR-8 ovarian; 0.0354 µM in the test with SK-MEL-2 melanoma; 0.0314 µM with SNB-75 CNS. Moreover, in the test on T-47D breast, the GI50 is over 100 µM. The TGI was over 100 µM in the test with HCC-2998 colon; 78.7 µM in the test on HS 578T breast; over 100 µM in the test on OVCAR-4 ovarian; over 100 µM in the test on OVCAR-8 ovarian; over 100 µM with SK-MEL-2 melanoma; over 100 µM with SNB-75 CNS. The compound also gave a TGI in the test on T-47D breast of over 100 µM.

For the compound `O=C(Oc1ccc(Cl)cc1)c1ccccc1Nc1ccnc(C(F)(F)F)c1`, the GI50 is 13.6 µM in the test with HCC-2998 colon; 30.3 µM with HS 578T breast; 2.15 µM in the test on MDA-MB-435; 4.04 µM with OVCAR-8 ovarian; 20.2 µM in the test on SK-MEL-2 melanoma. Moreover, the TGI in the test on HCC-2998 colon is 27.6 µM; in the test on HS 578T breast, 93.9 µM; in the test with MDA-MB-435 it was 4.87 µM; in the test with OVCAR-8 ovarian, 35.5 µM; in the test on SK-MEL-2 melanoma, over 100 µM.

For `CCCCCCCCCCn1cc[n+](C)c1`, the GI50 is 1.56 µM with HCC-2998 colon; 2.36 µM in the test with HS 578T breast; 1.4 µM in the test on MDA-MB-435; 1.31 µM in the test on OVCAR-4 ovarian; 1.67 µM with OVCAR-8 ovarian; 2.69 µM in the test with SNB-75 CNS. In the test with T-47D breast, the GI50 is 1.61 µM. Further, the TGI was 11.2 µM in the test on HCC-2998 colon; 14 µM with HS 578T breast; 8.64 µM in the test on MDA-MB-435; over 61.4 µM in the test on OVCAR-4 ovarian; 15.8 µM in the test on OVCAR-8 ovarian; 11.4 µM in the test on SNB-75 CNS. In the test with T-47D breast, this compound returned a TGI of over 21.7 µM.

`CN(C)c1cc(NN=C(c2ccc(O)cc2)c2ccc(O)cc2)c([N+](=O)[O-])cc1[N+](=O)[O-]`: the GI50 in the test on HCC-2998 colon is 13.8 µM; with MDA-MB-435, 3.02 µM; with OVCAR-4 ovarian, 5.77 µM; in the test on OVCAR-8 ovarian, 7.73 µM; in the test on SK-MEL-2 melanoma, 7.45 µM; with SNB-75 CNS, 10.4 µM. Also, the GI50 in the test with T-47D breast is 3.34 µM. The TGI in the test with HCC-2998 colon stood at 27.8 µM; with MDA-MB-435, 14.3 µM; with OVCAR-4 ovarian it was 28 µM; with OVCAR-8 ovarian it was 46.5 µM; with SK-MEL-2 melanoma it was 22.9 µM; with SNB-75 CNS it was 25 µM. The compound also showed a TGI in the test with T-47D breast of 17.2 µM.

Regarding `O=C(O)c1ccc2c(c1C(=O)O)C(=O)OC2(c1ccc(O)cc1)c1ccc(O)cc1`, the TGI with HS 578T breast, in the test on MDA-MB-435, with OVCAR-4 ovarian, in the test with OVCAR-8 ovarian, in the test with SK-MEL-2 melanoma and in the test on SNB-75 CNS was over 100 µM in each case. The same compound had a TGI with T-47D breast of over 100 µM.

As to `COc1cc(C2CC(C)(O)Oc3cc4c(cc32)OCO4)cc(OC)c1OC` (centres undefined), the TGI with HCC-2998 colon was 34.8 µM; with HS 578T breast, 0.696 µM; in the test on OVCAR-4 ovarian, over 100 µM; with OVCAR-8 ovarian it was 6.01 µM; in the test on T-47D breast, over 100 µM.

Take `CCCCCCCCCCCCCCCC[N+](C)(C)Cc1ccccc1`: the GI50 is 0.923 µM with HCC-2998 colon; 1.82 µM in the test with HS 578T breast; 1.54 µM with MDA-MB-435; 1.59 µM in the test on OVCAR-4 ovarian; 1.34 µM in the test with SNB-75 CNS; 1.31 µM and 1.48 µM in the test with T-47D breast. Besides, the TGI in the test with HCC-2998 colon was 2.38 µM; with HS 578T breast, 4.89 µM; with MDA-MB-435, 2.91 µM; in the test with OVCAR-4 ovarian, 4.55 µM; with SNB-75 CNS, 2.76 µM; in the test on T-47D breast it was 5.62 µM and 6.1 µM.

For the compound `COc1ccc(/C=N/NC(=O)c2cccc3cc[nH]c23)cc1O`, the GI50 was 6.96 µM in the test with HCC-2998 colon; 1.47 µM in the test on HS 578T breast; 10.3 µM with OVCAR-4 ovarian; 6.2 µM in the test with OVCAR-8 ovarian; 18.9 µM in the test on SK-MEL-2 melanoma; 0.24 µM in the test with SNB-75 CNS. The GI50 in the test with T-47D breast was 5.74 µM. The TGI with HCC-2998 colon is 97.5 µM; in the test on HS 578T breast, over 30.3 µM; in the test on OVCAR-4 ovarian, over 100 µM; in the test on OVCAR-8 ovarian, over 100 µM; in the test with SK-MEL-2 melanoma, over 100 µM; in the test on SNB-75 CNS, over 100 µM. Moreover, the TGI in the test on T-47D breast was over 100 µM.

Regarding `N#Cc1c[nH]n2c(N=Nc3ccc(Cl)cc3)c(O)nc12`, the GI50 was 56.9 µM in the test on HS 578T breast; 44.3 µM in the test with MDA-MB-435; 57.3 µM in the test on OVCAR-4 ovarian; 32 µM in the test on OVCAR-8 ovarian; 52 µM in the test with SK-MEL-2 melanoma; 40.7 µM in the test on SNB-75 CNS. For the same compound, in the test on T-47D breast, the GI50 was 10.1 µM. Moreover, the TGI in the test on HS 578T breast, with MDA-MB-435, in the test on OVCAR-4 ovarian, in the test with OVCAR-8 ovarian, in the test on SK-MEL-2 melanoma and in the test on SNB-75 CNS was over 100 µM each time. Further, in the test on T-47D breast, the TGI is 56 µM.
